Assay results: patent US20060160785A1, “Ezetimibe polymorphs” (priority 2004, published 2006)
Values after ≈ are worked out from the molar mass of the structure shown. “Also recorded” adds a separate entry of the source.

Assays:
[1] = Transformation of ezetimibe crystal forms by heating (XRD); type: physicochemical
Text: In the following examples, the forms of ezetimibe were identified using Scintag X-ray powder diffractometer model X'TRA, Cu-tube solid state detector. The sample holder was a round standard aluminum sample holder with rough zero background quartz plate with a cavity of 25 (diameter) X 0.5 mm (depth). The scanning parameters were range: 2-40 degrees two-theta; scan mode: continuous scan; step size: 0.05 deg.; and a rate of 3 deg/min.
After two hours, each sample was removed and analyzed by XRD.

[2] = Solubility of ezetimibe; type: physicochemical; conditions: water
[3] = reported; cited from earlier work
[4] = cited from earlier work
[5] = Particle size distribution by Malvern laser diffraction; type: physicochemical; conditions: prime particles with sonication
Protocol: A Malvern Laser Diffraction instrument was used to characterize the particle size distribution of ezetimibe. A Mastersizer S model equipped with a small cell dispersion unit MS1 with a digital dispersion unit controller was used. The measurement was done using range lens 300RF (working range 0.05-900 mcm), beam length: 2.40 mm and presentation 3NHE. In this case, a solution of dioctyl sulfosuccinate sodium salt in n-hexane was used as a dilution medium. The measurement was started after 1 minute of recirculation after suspension addition into measurement cell at speed rate 2000±10 rpm.
The suspension was prepared of 0.1 g sample in solution 0.065% dioctyl sulfosuccinate sodium salt in n-hexane by vortex for 10 seconds and by sonication for 30 seconds. According to the accepted rules of Good Manufacture Procedures, the sample of ezetimibe is preferably measured after a successful blank measurement (% obscuration NMT 0.1% is performed.

[6] = Effect of pressing on crystalline stability; type: physicochemical; conditions: pressed 1 minute, approximately 1300 psi
Protocol: Crystalline stability of Form A and Form B was tested by pressing each of the forms for about 1 minute under a pressure of about 1300 psi. […] Form A is also stable under pressing.
Forms A and B were studied under pressure. The forms were pressed for 1 minute under a pressure of approximately 1300 psi.

[7] = Transformation under different relative humidities (XRD and KF); type: physicochemical; conditions: for Crystal form / Water content by KF: 25-30° C.
Protocol: 500 mg samples were placed in an open glass bottle at a temperature of 25° C. to 30° C., under various humidity for a sufficient time (1-14 days) for each sample to equilibrate. At the end of each time period, each sample was removed and analyzed by XRD and by KF. The results are summarized below in Tables 6-7 for starting Forms A and B, respectively.

[8] = Micronization (milling) crystal form stability; type: physicochemical
Protocol: Micronization of Form B is preferably carried out by milling Form B using a feed air rate of about 6 bar and a grinding air pressure of about 5 bar, for about 20 to about 30 minutes.
Form B was milled by a 50 mm micronizer for about 20 to 30 minutes. The feed air rate was 6.0 bar and the grinding air was 5.0 bar. The sample was analyzed before and after micronization by XRD. During micronization 65% (estimated by XRD and by KF) of Form B converted to Form A. The estimated water content is 1-2% by weight. Micronization of Form A on the other hand results in Form A.

[9] = Specific surface area (Coulter SA3100, BET); type: physicochemical
Protocol: Specific surface area was measured using the following parameters:
Instrument: Coulter SA3100
(§1) Table 8 illustrates the maximum particle size and specific surface area of ezetimibe Form B before and after micronization. The maximum particle size was determined by microscope observation.

[10] = Maximum particle size by microscope observation; type: physicochemical
Protocol: (§2) 1 g mixture of micronized Form A and B was stored at 30° C. under 100% RH for 8 days. The mixture of Form A and Form B converted to 100% Form B after storage. Micronized Form B contained 4.1% water by weight based on Karl Fischer analysis. The micronized sample was analyzed before and after storage by XRD. The material was dispersed in light mineral oil before measurement for microscope observation. Form B was in the shape of needles and plates.
as §1

[11] = Stability of Form B in water slurry; type: physicochemical
Protocol: Ezetimibe Form B was stirred in soft water (25 ml) for 4 h at room temperature (heavy slurry). The mixture was filtered and washed with water (20 ml). The wet sample, after washing, was Form B. The solid was dried under vacuum at 45° C. for 18 hrs. The dry sample contained Form B (20-30% by weight) and Form A. 95% yield.

[12] = Storage of micronized Form A and B mixture at 30° C., 100% RH; type: physicochemical; conditions: 8 days
Protocol: as §2

[13] = 50 mm micronizer, 20 to 30 minutes

Structure (SMILES): O=C1[C@H](CC[C@H](O)c2ccc(F)cc2)[C@@H](c2ccc(O)cc2)N1c1ccc(F)cc1 [Amorphous Form, 1-(4-fluorophenyl)-3(R)-[3-(4-fluorophenyl)-3(S)-hydroxypropyl]-4(S)-(4-hydroxyphenyl)-2-azetidinone]
- heat transformation result (crystal form by XRD) ([1]; 60° C., 2 h, atmospheric oven): Amorphous Form
- heat transformation result (crystal form by XRD) ([1]; 90° C., 2 h, atmospheric oven): Form A
- temperature at which it transforms to Form A ([1]; heating): above 60 °C

Structure (SMILES): O=C1[C@H](CC[C@H](O)c2ccc(F)cc2)[C@@H](c2ccc(O)cc2)N1c1ccc(F)cc1 [Ezetimibe, 1-(4-fluorophenyl)-3(R)-[3-(4-fluorophenyl)-3(S)-hydroxypropyl]-4(S)-(4-hydroxyphenyl)-2-azetidinone]
- solubility [2]: 10 µg/mL (≈ 24.4 µM)
- stability at ambient temperature [3]: stable
- solubility in ethanol, methanol, and acetone ([4]; ethanol, methanol, acetone): freely to very soluble
- solubility in water ([4]; water): practically insoluble

Structure (SMILES): O=C1[C@H](CC[C@H](O)c2ccc(F)cc2)[C@@H](c2ccc(O)cc2)N1c1ccc(F)cc1 [Form A, 1-(4-fluorophenyl)-3(R)-[3-(4-fluorophenyl)-3(S)-hydroxypropyl]-4(S)-(4-hydroxyphenyl)-2-azetidinone]
- d (0.5) [5]: 3.18-3.33 microns
- d (0.9) [5]: 7.95-8.05 microns
- d(0.1) [5]: 0.39 microns
- Sample after pressing (crystal form) [6]: stable; also recorded: Form A + ˜5% B
- Crystal form ([7]; RH 0%, 12 days): Form A
- Water content by KF ([7]; RH 0%, 12 days): 0.2 wt %
- Crystal form ([7]; RH 20%, 7 days): Form A + ˜5% B*
- Water content by KF ([7]; RH 20%, 7 days): 0.2 wt %
- Crystal form ([7]; RH 40%, 12 days): Form A + ˜5-10% B*
- Water content by KF ([7]; RH 40%, 12 days): 0.3 wt %
- Crystal form ([7]; RH 80%, 12 days): Form B
- Water content by KF ([7]; RH 80%, 12 days): 4.5 wt %
- Crystal form ([7]; RH 100%, 1 day): Form B
- Water content by KF ([7]; RH 100%, 1 day): 4.3 wt %
- heat transformation result (crystal form by XRD) ([1]; 60° C., 2 h, atmospheric oven): Form A
- heat transformation result (crystal form by XRD) ([1]; 90° C., 2 h, atmospheric oven): Form A
- heat transformation result (crystal form by XRD) ([1]; 110° C., 2 h, atmospheric oven): Form A
- stability upon heating ([1]; even at high temperatures): stable
- crystal form after micronization [8, 13]: Form A
- stability upon micronization ([8]; milling, feed air 6 bar, grinding air 5 bar): stable

Structure (SMILES): O=C1[C@H](CC[C@H](O)c2ccc(F)cc2)[C@@H](c2ccc(O)cc2)N1c1ccc(F)cc1 [Form B, 1-(4-fluorophenyl)-3(R)-[3-(4-fluorophenyl)-3(S)-hydroxypropyl]-4(S)-(4-hydroxyphenyl)-2-azetidinone]
- SSA ([9]; After micronization): 6.8 m^2/g
- SSA ([9]; Before micronization): 3.4 m^2/g
- Sample after pressing (crystal form) [6]: retains its crystalline form; also recorded: Form B
- Maximum particle size ([10]; After micronization): 20 μm
- Maximum particle size ([10]; Before micronization): 400 μm
- Crystal form ([7]; RH 0%, 14 days): Form A
- Water content by KF ([7]; RH 0%, 14 days): 0.1 wt %
- Crystal form ([7]; RH 20%, 7 days): Form A + ˜5% B*
- Water content by KF ([7]; RH 20%, 7 days): 0.2 wt %
- Crystal form ([7]; RH 40%, 14 days): Form B
- Water content by KF ([7]; RH 40%, 14 days): 4.0 wt %
- Crystal form ([7]; RH 80%, 14 days): Form B
- Water content by KF ([7]; RH 80%, 14 days): 4.3 wt %
- Crystal form ([7]; RH 100%, 14 days): Form B
- Water content by KF ([7]; RH 100%, 14 days): 4.4 wt %
- Form B content of dry sample after water slurry ([11]; dried under vacuum at 45° C. for 18 hrs, remainder Form A): 20-30 % by weight
- crystal form of wet sample after water slurry ([11]; soft water, 4 h, room temperature, filtered and washed): Form B
- heat transformation result (crystal form by XRD) ([1]; 45° C., 18 h): Form A
- heat transformation result (crystal form by XRD) ([1]; 60° C., 2 h, atmospheric oven): Form A
- heat transformation result (crystal form by XRD) ([1]; 90° C., 2 h, atmospheric oven): Form A
- heat transformation result (crystal form by XRD) ([1]; 110° C., 2 h, atmospheric oven): Form A
- estimated water content after micronization [8, 13]: 1-2 % by weight
- Form B converted to Form A during micronization ([8]; 50 mm micronizer, 20 to 30 minutes, estimated by XRD and by KF): 65%

Structure (SMILES): O=C1[C@H](CC[C@H](O)c2ccc(F)cc2)[C@@H](c2ccc(O)cc2)N1c1ccc(F)cc1 [Micronized Form B]
- water content by Karl Fischer after storage [12]: 4.1 % by weight
- stability in relative humidity ([7]; relative humidity of about 40% to about 100%): stable
- stability upon slurrying [11]: stable

Structure (SMILES): O=C1[C@H](CC[C@H](O)c2ccc(F)cc2)[C@@H](c2ccc(O)cc2)N1c1ccc(F)cc1 [mixture of micronized Form A and B]
- Form B content after storage [12]: 100%
